Measured values published in patent publication US20250041387A1, “POLYPEPTIDE SEQUENCE OF KDM6B AND APPLICATION OF KDM6B IN REGULATING AND CONTROLLING FUNCTION OF MESENCHYMAL STEM CELL” (BEIJING STOMATOLOGICAL HOSPITAL, CAPITAL MEDICAL UNIVERSITY, priority 2021, published 2025).

Experiments:
WDR5 synthetic protein = WDR5 synthetic protein (Homo sapiens, UniProt P61964); test: Polypeptide microarray of KDM6B incubated with biotin-labeled WDR5; assay type: binding; settings: FIG. 3A, B; positive = optical density more than 30%
Text: • (1) Synthesis of polypeptide chip: A polypeptide chip was designed by overlapping and synthesized according to the sequence of KDM6B protein, with a total of two arrays. • (2) Synthesis of polypeptide microarray: A matrix membrane was activated, and placed on a fully automated polypeptide chip synthesizer. A Fmoc-amino acid solution was automatically transferred to a specific position on the activated membrane according to the set procedure, to react with the membrane. The membrane was immersed sequentially into the blocking solution I and II to block side chains, and washed with dimethyl formamide (DMF). The membrane was placed in a deprotection solution to remove the Fmoc protective group at the amino-terminal, then washed with DMF, and dried with ethanol. The above steps were repeated until all polypeptide microarrays were completely synthesized. After the synthesis was completed, the protective groups of the side chains were removed with specific organic reagents. […] The control group was incubated with the blocking solution. • (6) Streptavidin-HRP incubation: The reaction reagent Streptavidin-HRP (High Sensitivity Streptavidin-HRP (prod #21133)) was diluted with the blocking solution in an ratio of 1:10000, and then the polypeptide microarray chip was incubated with 5 ml of the diluted Streptavidin-HRP under shaking at room temperature for 2 hours, and washed. • (7) Color development: ECL luminescence reagent was added, and digital imaging was performed on a Chempchemi digital imager. • (8) Scan of polypeptide microarray chip and data analysis of color spot: The colored polypeptide microarray chip was imaged at 425 nm using the Chempchemi Imaging System with 200 s exposure. The optical density of colored spots was analyzed using TotalLab image analysis software, and the optical density of each colored spot was calculated using the “Spot Edge Average” algorithm in the software, with the optical density of the surrounding background of each colored spot as a reference. […]

[1] = target: KDM6B/WDR5 protein complex (Homo sapiens, UniProt P61964); test: Co-IP of KDM6B/WDR5 complex in bone marrow mesenchymal stem cells; assay type: cell-based; parameters: endogenous in cells; host or cells: bone marrow mesenchymal stem cells; settings: FIG. 3C
Description: Protein was extracted from cells of knockout group and overexpression group using IP lysate. The knockout group cells SCAPs-Scramsh and SCAPs-KDM6Bsh, SCAPs-Scramsh and SCAPs-WDR5sh, BMSCs-Scramsh and BMSCs-WDR5sh were added with KDM6B antibody, WDR5 antibody, and IgG antibody, respectively, and then rotated on a shaker at 4° C. overnight. On the next day, the cells were added with Protein A/G beads and rotated on a rotary shaker at 4° C. for 2 hours. A complex of protein-antibody-agarose bead was formed, and the formation of a protein complex of KDM6B and WDR5WB was detected by WB. The overexpression group cells SCAPs-Vector, SCAPs-HA-KDM6B, SCAPs-HA-KDM6B-mut102, and SCAPs-HA-KDM6B-mut114 were added with ProteinA/G beads with HA antibody, and cells SCAPs Vector and SCAPs-Myc-WDR5 were added with ProteinA/G beads with Myc antibody. All cells were incubated overnight to form a complex of protein-antibody-agarose bead. The formation of a protein complex of KDM6B and WDR5 was detected by WB method. • (2) Grouping: Input group (loading amount of 25 μg); antibody group (loading amount of 800 μg, 2 μg of antibody); IgG group (loading amount of 800 μg, 2 μg of antibody). Samples were diluted with lysate. • (3) Preparation of protein A/G beads
The protein A/G beads were washed 4 times with PBS, and centrifuged at 2000 g for 2 minutes. The supernatant was carefully collected, and added with PBS to achieve a content of protein A/G beads of 50%. 30 μL of protein A/G beads was added to each tube, and rotated at 4 degrees overnight. • (4) The samples were centrifuged at 5000 rpm for 30 s at 4° C., and washed 4-5 times with PBS by inverted up and down. Then the samples were centrifuged, and the supernatant was discarded. The samples were added with 30 μL of 2× loading buffer, and placed at 100° C. for 5 minutes. • (5) The supernatant was subjected to electrophoresis.

Substance: FITC-(Acp)-IVPMIHVSWNVARTVYGRKKRRQRRR [peptide 152]
- binding degree to WDR5 on polypeptide microarray (optical density of spots) (WDR5 synthetic protein): higher binding degree
- opening/blocking of the binding of KDM6B/WDR5 protein complex (Co-IP) [1]: could not effectively block the binding
